The values below are quoted from earlier work in patent publication US9480645B2, “Omega-3 oil containing ophthalmic emulsions” (Abbott Medical Optics Inc., priority 2009, dated 2016).

For the series the following is noted: generally as reported by the manufacturer of the commercial product.

Turning to Sorbitan monooleate, the HLB is 4.3.
As to Sorbitan monopalmitate, the HLB is on record as 6.7.
As to Sorbitan monostearate, the HLB is on record as 4.7.
